# Measurements as given in patent publication US10173971B2, “Picolinamides with fungicidal activity” (DOW AGROSCIENCES LLC, priority 2014, dated 2019).
# Where two headings read alike, the source gives them in different places.
# Tests used:
# [1] = test system: Zymoseptoria tritici; assay: Fungicidal activity: leaf blotch of wheat (SEPTTR), wheat seedlings, booth sprayer to run-off or track spray; assay type: in vivo; details: for pest or weed control at 121.5 g/ha: Low-Volume Cereal Activity at 121.5 g/H; for pest or weed control at 100 ppm: High-Volume Cereal Activity at 100 ppm
# Method: All fungicides were evaluated using the aforementioned method for their activity vs. all target diseases. Wheat leaf blotch and brown rust activity were also evaluated using track spray applications, in which case the fungicides were formulated as EC formulations, containing 0.1% Trycol 5941 in the spray solutions. Wheat plants (variety Yuma) were grown from seed in a greenhouse in 50% mineral soil/50% soil-less Metro mix until the first leaf was fully emerged, with 7-10 seedlings per pot. These plants were inoculated with an aqueous spore suspension of Zymoseptoria tritici either prior to or after fungicide treatments. After inoculation the plants were kept in 100% relative humidity (one day in a dark dew chamber followed by two to three days in a lighted dew chamber at 20° C.) to permit spores to germinate and infect the leaf. The plants were then transferred to a greenhouse set at 20° C. for disease to develop. When disease symptoms were fully expressed on the 1st leaves of untreated plants, infection levels were assessed on a scale of 0 to 100 percent disease severity. Percent disease control was calculated using the ratio of disease severity on treated plants relative to untreated plants.
# [2] = test system: Puccinia triticina; assay: Fungicidal activity: wheat brown rust (PUCCRT), wheat seedlings, booth sprayer to run-off or track spray; assay type: in vivo; details: for pest or weed control at 121.5 g/ha: Low-Volume Cereal Activity at 121.5 g/H; for pest or weed control at 100 ppm: High-Volume Cereal Activity at 100 ppm
# Method: All fungicides were evaluated using the aforementioned method for their activity vs. all target diseases. Wheat leaf blotch and brown rust activity were also evaluated using track spray applications, in which case the fungicides were formulated as EC formulations, containing 0.1% Trycol 5941 in the spray solutions. Wheat plants (variety Yuma) were grown from seed in a greenhouse in 50% mineral soil/50% soil-less Metro mix until the first leaf was fully emerged, with 7-10 seedlings per pot. These plants were inoculated with an aqueous spore suspension of Puccinia triticina either prior to or after fungicide treatments. […] The plants were then transferred to a greenhouse set at 24° C. for disease to develop. Fungicide formulation, application and disease assessment followed the procedures as described in the Example A.
# [3] = 24 h, 1 Day Protectant, read-out: SEPTTR 1DP
# [4] = 72 h, 3 Day Curative, read-out: SEPTTR 3DC
# [5] = 24 h, 1 Day Protectant, read-out: PUCCRT 1DP
# [6] = 72 h, 3 Day Curative, read-out: PUCCRT 3DC
# [7] = 3DC (Day Curative), read-out: SEPTTR 3DC
# [8] = 3DC (Day Curative), read-out: PUCCRT 3DC
SMILES,"pest or weed control at 121.5 g/ha [1, 3]","pest or weed control at 121.5 g/ha [1, 4]","pest or weed control at 121.5 g/ha [2, 5]","pest or weed control at 121.5 g/ha [2, 6]","pest or weed control at 100 ppm [1, 3]","pest or weed control at 100 ppm [1, 7]","pest or weed control at 100 ppm [2, 5]","pest or weed control at 100 ppm [2, 8]"
COc1ccnc(C(=O)N[C@@H](C)C(=O)OC(C)C(Cc2cccc(F)c2)Cc2cccc(F)c2)c1OC(C)=O (stereo partly shown) [compound 263],0 to 80%,0 to 80%,0 to 80%,0 to 80%,–,–,–,–
COc1ccnc(C(=O)N[C@@H](C)C(=O)O[C@@H](C)[C@H](Cc2ccc(Cl)cc2)c2ccccc2)c1O [compound 121],–,–,–,–,80 to 100%,0 to 80%,80 to 100%,0 to 80%
CC[C@@H](Oc1ccccc1)[C@@H](Cc1ccccc1)[C@H](C)OC(=O)[C@H](C)NC(=O)c1nccc(OC)c1O [compound 118],–,–,–,–,80 to 100%,0 to 80%,0 to 80%,80 to 100%
COc1ccnc(C(=O)N[C@@H](C)C(=O)O[C@@H](C)[C@H](Cc2ccc(F)cc2)C(C)(C)OC)c1OCOC(C)=O [compound 244],0 to 80%,80 to 100%,80 to 100%,80 to 100%,–,–,–,–
COc1ccnc(C(=O)N[C@@H](C)C(=O)O[C@@H](C)[C@H](Cc2ccc(Cl)cc2)c2ccccc2)c1OC(=O)C(C)C [compound 202],80 to 100%,80 to 100%,0 to 80%,0 to 80%,–,–,–,–
COc1ccc(C[C@@H]([C@H](C)OC(=O)[C@H](C)NC(=O)c2nccc(OC)c2OCOC(C)=O)C(C)(C)OCC2CC2)cc1 [compound 278],0 to 80%,0 to 80%,80 to 100%,0 to 80%,–,–,–,–
COc1ccnc(C(=O)N[C@@H](C)C(=O)O[C@@H](C)[C@@H](COCc2ccccc2)Cc2ccc(F)cc2)c1OC(C)=O [compound 228],80 to 100%,0 to 80%,0 to 80%,0 to 80%,–,–,–,–
COc1ccnc(C(=O)N[C@@H](C)C(=O)O[C@@H](C)[C@H](Cc2ccc(F)cc2)c2ccccc2)c1OCOC(C)=O [compound 222],80 to 100%,80 to 100%,80 to 100%,–,–,–,–,–
COc1ccnc(C(=O)N[C@@H](C)C(=O)O[C@@H](C)[C@@H](COCc2ccccc2)Cc2ccc(F)cc2)c1OCOC(C)=O [compound 239],80 to 100%,0 to 80%,80 to 100%,0 to 80%,–,–,–,–
CCCO[C@@H](CC)[C@@H](Cc1ccccc1)[C@H](C)OC(=O)[C@@H](C)NC(=O)c1nccc(OC)c1OCOC(C)=O [compound 163],–,–,–,–,0 to 80%,0 to 80%,80 to 100%,80 to 100%
CCCC[C@H](c1ccccc1)[C@H](C)OC(=O)[C@H](C)NC(=O)c1nccc(OC)c1OC(C)=O [compound 197],80 to 100%,80 to 100%,80 to 100%,80 to 100%,–,–,–,–
COc1ccnc(C(=O)N[C@@H](C)C(=O)O[C@@H](C)[C@@H](COCc2ccccc2)Cc2ccc(F)cc2)c1O [compound 131],–,–,–,–,80 to 100%,0 to 80%,80 to 100%,0 to 80%
COc1ccnc(C(=O)N[C@@H](C)C(=O)O[C@@H](C)[C@H](Cc2ccccc2)c2ccccc2)c1OCOC(C)=O [compound 195],80 to 100%,80 to 100%,80 to 100%,80 to 100%,–,–,–,–
COc1ccnc(C(=O)N[C@@H](C)C(=O)O[C@@H](C)[C@H](Cc2ccc(F)cc2)C(C)(C)OCc2ccccc2)c1O [compound 133],–,–,–,–,0 to 80%,0 to 80%,80 to 100%,–
CCCO[C@@H](CC)[C@@H](Cc1ccccc1)[C@H](C)OC(=O)[C@@H](C)NC(=O)c1nccc(OC)c1O [compound 94],–,–,–,–,0 to 80%,0 to 80%,80 to 100%,80 to 100%
COc1ccc(CC(Cc2ccc(OC)cc2)[C@H](C)OC(=O)[C@H](C)NC(=O)c2nccc(OC)c2O)cc1 [compound 154],–,–,–,–,80 to 100%,–,80 to 100%,–
COc1ccnc(C(=O)N[C@@H](C)C(=O)O[C@@H](C)[C@H](Cc2ccc(F)cc2)C(C)(C)OC)c1O [compound 136],–,–,–,–,–,80 to 100%,0 to 80%,0 to 80%
COc1ccnc(C(=O)N[C@@H](C)C(=O)O[C@@H](C)[C@H](Cc2ccc(Cl)cc2)c2ccccc2)c1OC(C)=O [compound 201],80 to 100%,0 to 80%,0 to 80%,0 to 80%,–,–,–,–
CCCO[C@@H](CC)[C@@H](Cc1ccccc1)[C@H](C)OC(=O)[C@H](C)NC(=O)c1nccc(OC)c1OCOC(C)=O [compound 168],80 to 100%,0 to 80%,80 to 100%,80 to 100%,80 to 100%,80 to 100%,80 to 100%,80 to 100%
COc1ccnc(C(=O)N[C@@H](C)C(=O)O[C@@H](C)[C@H](CCC(C)C)c2ccccc2)c1OCOC(=O)C(C)C [compound 214],80 to 100%,80 to 100%,80 to 100%,80 to 100%,–,–,–,–
CCCOC[C@@H](Cc1ccccc1)[C@H](C)OC(=O)[C@H](CC)NC(=O)c1nccc(OC)c1OCOC(C)=O [compound 167],80 to 100%,0 to 80%,80 to 100%,80 to 100%,80 to 100%,80 to 100%,80 to 100%,80 to 100%
COCCC(=O)Oc1c(OC)ccnc1C(=O)N[C@@H](C)C(=O)O[C@@H](C)[C@H](CCC(C)C)c1ccccc1 [compound 212],80 to 100%,80 to 100%,80 to 100%,80 to 100%,–,–,–,–
C=C(C)[C@@H](Cc1ccccc1)[C@H](C)OC(=O)[C@H](C)NC(=O)c1nccc(OC)c1OCOC(C)=O [compound 255],0 to 80%,80 to 100%,80 to 100%,80 to 100%,–,–,–,–
CC[C@H](CCCc1ccccc1)[C@@H](CC(C)C)[C@H](C)OC(=O)C(C)NC(=O)c1nccc(OC)c1O (stereo partly shown) [compound 101],–,–,–,–,80 to 100%,–,80 to 100%,0 to 80%
CCCOC[C@@H](Cc1ccccc1)[C@H](C)OC(=O)[C@H](C)NC(=O)c1nccc(OC)c1OCOC(C)=O [compound 162],80 to 100%,80 to 100%,80 to 100%,80 to 100%,80 to 100%,80 to 100%,80 to 100%,80 to 100%
